# Patent US7304174B2, “CaSR antagonist” (Japan Tobacco Inc., priority 2003, dated 2007)
# Key:
# [1] = target: T1, human calcium receptor (Homo sapiens, UniProt P41180); test: Evaluation of antagonistic action on calcium receptor using reporter gene (luciferase); type: cell-based; settings: transformed rat adrenal derived cells, 5 mM calcium chloride, culture 4 hrs, luciferase activity; read-out: Reporter gene assay (IC50, concentration showing 50% inhibitory rate)
# T1 construct: expressed in transfected cells; host or cells: cell strain derived from rat adrenal, co-transformed with luciferase cDNA
# T1 sequence (P41180 20-1078): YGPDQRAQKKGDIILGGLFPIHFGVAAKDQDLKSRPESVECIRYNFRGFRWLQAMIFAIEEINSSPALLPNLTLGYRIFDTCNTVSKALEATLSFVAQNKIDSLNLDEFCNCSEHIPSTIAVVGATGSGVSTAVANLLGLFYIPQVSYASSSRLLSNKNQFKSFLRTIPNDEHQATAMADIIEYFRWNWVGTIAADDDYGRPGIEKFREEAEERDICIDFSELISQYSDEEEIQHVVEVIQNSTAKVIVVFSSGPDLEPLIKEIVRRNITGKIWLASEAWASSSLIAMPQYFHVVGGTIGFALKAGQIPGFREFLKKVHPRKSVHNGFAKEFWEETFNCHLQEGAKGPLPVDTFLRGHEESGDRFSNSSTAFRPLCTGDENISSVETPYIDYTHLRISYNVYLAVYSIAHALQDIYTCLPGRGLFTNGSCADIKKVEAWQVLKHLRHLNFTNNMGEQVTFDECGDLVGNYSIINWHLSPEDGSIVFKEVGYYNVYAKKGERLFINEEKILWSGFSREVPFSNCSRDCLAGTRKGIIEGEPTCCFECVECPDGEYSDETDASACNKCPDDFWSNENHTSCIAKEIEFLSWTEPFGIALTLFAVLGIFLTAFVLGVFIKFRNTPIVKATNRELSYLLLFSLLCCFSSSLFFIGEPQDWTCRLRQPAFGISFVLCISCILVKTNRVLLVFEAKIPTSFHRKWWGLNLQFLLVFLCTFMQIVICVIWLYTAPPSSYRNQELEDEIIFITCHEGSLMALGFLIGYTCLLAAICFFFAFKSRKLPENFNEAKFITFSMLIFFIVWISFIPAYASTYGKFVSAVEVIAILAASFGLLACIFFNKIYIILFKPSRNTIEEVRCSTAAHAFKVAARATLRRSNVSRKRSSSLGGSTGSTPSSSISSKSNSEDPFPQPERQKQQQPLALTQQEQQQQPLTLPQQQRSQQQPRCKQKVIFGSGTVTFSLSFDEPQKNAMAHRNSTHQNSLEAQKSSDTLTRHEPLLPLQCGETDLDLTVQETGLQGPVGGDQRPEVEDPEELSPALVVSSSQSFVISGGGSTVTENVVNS
# Method in brief: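 Rat adrenal-derived cells transfected with luciferase and human calcium receptor cDNA, in F12 with 0.5% dialyzed horse serum and 0.25% dialyzed fetal bovine serum. Luciferase luminescence gave % inhibition vs control and blank; IC50 at 50% inhibition.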
# [2] = target: T2, CYP2D6 (Homo sapiens, UniProt P10635); test: Metabolic enzyme CYP2D6 inhibitory activity (inhibition measurement kit); type: in vitro ADME; settings: enzyme activity free of test compound as 100%, >10 means over 10 μM
# T2 construct: purchased BD Bioscience
# Protocol: Using a metabolic enzyme CYP2D6 inhibition measurement kit (BD Bioscience) and following the manual of the kit, the inhibitory activity of the test compound was measured. With the enzyme activity free of the test compound as 100%, the concentration (IC50) showing 50% inhibition was determined. The results are shown in Table 63 and Table 64, wherein “>10” means over 10 μM.
# [3] = tested on: PTH release; settings: OVX rat, cited from earlier work
# T2 sequence (P10635 whole entry): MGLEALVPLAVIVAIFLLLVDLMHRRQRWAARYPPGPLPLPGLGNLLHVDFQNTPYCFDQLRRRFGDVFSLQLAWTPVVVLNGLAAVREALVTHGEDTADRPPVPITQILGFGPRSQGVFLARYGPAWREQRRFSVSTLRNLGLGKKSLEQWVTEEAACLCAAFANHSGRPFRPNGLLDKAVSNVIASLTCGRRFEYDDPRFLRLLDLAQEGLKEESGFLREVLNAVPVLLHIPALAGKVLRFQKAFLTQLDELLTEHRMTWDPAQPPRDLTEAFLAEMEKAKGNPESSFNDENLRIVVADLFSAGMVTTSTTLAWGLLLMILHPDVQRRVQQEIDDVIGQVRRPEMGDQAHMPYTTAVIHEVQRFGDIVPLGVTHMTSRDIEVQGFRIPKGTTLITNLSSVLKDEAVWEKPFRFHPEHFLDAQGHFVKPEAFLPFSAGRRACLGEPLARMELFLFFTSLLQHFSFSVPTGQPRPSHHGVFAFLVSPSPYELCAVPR
IC50 [1] [nM],IC50 [2] [nM],"IC50 ([2]; human, CYP2D6 inhibition measurement kit (BD Bioscience)) [nM]",Compound,Time until blood PTH returned to the original level ([3]; 5 μg/kg) [h],"Blood PTH concentration in 30 minutes ([3]; rat PTH (1-34) 5 μg/kg, NPS-2143 100 μmol/kg)"
12,> 10000,–,"Cc1ccc(CC(C)(C)NC[C@@H](O)CO[C@H](C)c2ccccc2-c2ccc(C(=O)O)c(Cl)n2)cc1F [Example 1-39, 2-chloro-6-[2-[1-[(2R)-3-[[1-(3-fluoro-4-methylphenyl)-2-methylpropan-2-yl]amino]-2-hydroxypropoxy]ethyl]phenyl]pyridine-3-carboxylic acid]",–,–
5,> 10000,–,"CCc1cc(-c2ccccc2[C@@H](C)OC[C@H](O)CNC(C)(C)Cc2ccc(C)c(F)c2)ccc1C(=O)O [Example 1-33, 3-ethyl-2′-[1-[(2R)-3-[[1-(3-fluoro-4-methylphenyl)-2-methylpropan-2-yl]amino]-2-hydroxypropoxy]ethyl]biphenyl-4-carboxylic acid]",–,–
16,> 10000,–,"C[C@@H](OC[C@H](O)CNC(C)(C)Cc1ccc2ccccc2c1)c1ccccc1-c1ccc(C(=O)O)c(F)c1 [Example 1-59, 3-fluoro-2′-[1-[(2R)-3-[[1-(naphthalen-2-yl)-2-methylpropan-2-yl]amino]-2-hydroxypropoxy]ethyl]biphenyl-4-carboxylic acid]",–,–
27,> 10000,–,"Cc1cc(C(=O)O)ccc1-c1ccccc1[C@@H](C)OC[C@H](O)CNC(C)(C)Cc1ccc(Cl)c(Cl)c1 [Example 1-57, 2′-[1-[(2R)-3-[[1-(3,4-dichlorophenyl)-2-methylpropan-2-yl]amino]-2-hydroxypropoxy]ethyl]-2-methylbiphenyl-4-carboxylic acid]",–,–
10,> 10000,–,"C[C@@H](OC[C@H](O)CNC(C)(C)Cc1ccc2ccccc2c1)c1ccccc1-c1ccc(C(=O)O)c(Cl)n1 [Example 1-35, 2-chloro-6-[2-[1-[(2R)-3-[[1-(naphthalen-2-yl)-2-methylpropan-2-yl]amino]-2-hydroxypropoxy]ethyl]phenyl]pyridine-3-carboxylic acid]",–,–
21,> 10000,–,CC(OC[C@H](O)CNC(C)(C)Cc1ccc2ccccc2c1)c1ccccc1OCc1ccccc1C(=O)O (stereo partly drawn) [2-20′],–,–
2,> 10000,–,"CC(C)=Cc1cc(-c2ccccc2[C@@H](C)OC[C@H](O)CNC(C)(C)Cc2ccc(C)c(F)c2)ccc1C(=O)O [Example 1-48, 2′-[1-[(2R)-3-[[1-(3-fluoro-4-methylphenyl)-2-methylpropan-2-yl]amino]-2-hydroxypropoxy]ethyl]-3-(2-methyl-1-propenyl)biphenyl-4-carboxylic acid]",–,–
27,> 10000,–,"COc1cc(-c2ccccc2[C@@H](C)OC[C@H](O)CNC(C)(C)Cc2ccc(C)c(F)c2)ccc1C(=O)O [Example 1-80, 2′-[1-[(2R)-3-[[1-(3-fluoro-4-methylphenyl)-2-methylpropan-2-yl]amino]-2-hydroxypropoxy]ethyl]-3-methoxybiphenyl-4-carboxylic acid]",–,–
14,> 10000,–,"COc1cc(C(=O)O)ccc1-c1ccccc1[C@@H](C)OC[C@H](O)CNC(C)(C)Cc1ccc2ccccc2c1 [Example 1-27, 2′-[1-[(2R)-3-[[1-(naphthalen-2-yl)-2-methylpropan-2-yl]amino]-2-hydroxypropoxy]ethyl]-2-methoxybiphenyl-4-carboxylic acid]",–,–
14,> 10000,–,"COc1cc(-c2ccccc2[C@@H](C)OC[C@H](O)CNC(C)(C)Cc2ccc3ccccc3c2)ccc1C(=O)O [Example 1-26, 2′-[1-[(2R)-3-[[1-(naphthalen-2-yl)-2-methylpropan-2-yl]amino]-2-hydroxypropoxy]ethyl]-3-methoxybiphenyl-4-carboxylic acid]",–,–
7,> 10000,–,"COc1cc(CC(C)(C)NC[C@@H](O)CO[C@H](C)c2ccccc2-c2ccc(C(=O)O)c(C)c2)ccc1C [Example 1-73, 2′-[1-[(2R)-3-[[1-(3-methoxy-4-methylphenyl)-2-methylpropan-2-yl]amino]-2-hydroxypropoxy]ethyl]-3-methylbiphenyl-4-carboxylic acid]",–,–
2,–,10000,"CC(C)c1cc(-c2ccccc2[C@@H](C)OC[C@H](O)CNC(C)(C)Cc2ccc3ccccc3c2)ccc1C(=O)O [Example 1-32, 2′-[1-[(2R)-3-[[1-(naphthalen-2-yl)-2-methylpropan-2-yl]amino]-2-hydroxypropoxy]ethyl]-3-isopropylbiphenyl-4-carboxylic acid]",–,–
–,–,–,"rat PTH (1-34): rat parathyroid hormone fragment (1-34) administered to OVX rat (AVSEIQLMHNLGKHLASVERMQWLRKKLQDVHNF; Parathyroid hormone; UniProt P04089 32-65, looked up, fragment)",2,about 175 pg/ml
57,> 10000,–,"CC(OC[C@H](O)CNC(C)(C)Cc1cnc2ccccc2c1)c1ccccc1Oc1ccc(C(=O)O)cc1 (stereo partly drawn) [Example 2-5, 4-[2-[1-[(2R)-3-[[1-(quinolin-3-yl)-2-methylpropan-2-yl]amino]-2-hydroxypropoxy]ethyl]phenoxy]benzoic acid]",–,–
5,> 10000,–,"Cc1ccc(CC(C)(C)NC[C@@H](O)CO[C@H](C)c2ccccc2-c2ccc(C(=O)O)c(C(C)C)c2)cc1F [Example 1-34, 2′-[1-[(2R)-3-[[1-(3-fluoro-4-methylphenyl)-2-methylpropan-2-yl]amino]-2-hydroxypropoxy]ethyl]-3-isopropylbiphenyl-4-carboxylic acid]",–,–
